# The supplement of paper PMC10307832
# Experiments:
# Assay in all cases: relative viability (nuclei count vs DMSO), 5 days (fraction); higher = more cells survive
# [1] = compound: CCOC(=O)CCNc1cc(N2CCc3ccccc3CC2)nc(-c2ccccn2)n1 [GSK-J4] + CC(C)C[C@H](NC(=O)[C@H](Cc1ccccc1)NC(=O)c1cnccn1)B(O)O [Bortezomib] (partner 0.002 µM)
# Summary of the method: (§1)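 Medians of duplicate plates are given as relative viability. That measure is the nuclei count in treated wells divided by the count in vehicle wells. Counts were taken on 4× images of lung cancer cell lines in 1536-well plates, 5 days after pin-tool dosing the day after seeding with one drug alone or a fixed anchor-drug dose plus five library-drug doses (not always all listed) in √10 steps.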
# [2] = compound: CN1CCC(CC1)OC2=CC(=C(C=C2)NC3=NC=C4C(=N3)N(C(=O)N4C)C5CCCC5)OC [AZ3146] + CC(=O)Nc1cccc(-n2c(=O)n(C3CC3)c(=O)c3c(Nc4ccc(I)cc4F)n(C)c(=O)c(C)c32)c1 [Trametinib] (partner 0.02 µM)
# Summary of the method: as §1
# [3] = compound: CCOC(=O)CCNc1cc(N2CCc3ccccc3CC2)nc(-c2ccccn2)n1 [GSK-J4] + Cc1nc(Nc2ncc(C(=O)Nc3c(C)cccc3Cl)s2)cc(N2CCN(CCO)CC2)n1 [Dasatinib] (partner 0.075 µM)
# Summary of the method: as §1
# [4] = compound: CN1CCC(CC1)OC2=CC(=C(C=C2)NC3=NC=C4C(=N3)N(C(=O)N4C)C5CCCC5)OC [AZ3146] + COc1cc2c(Oc3ccc(NC(=O)C4(C(=O)Nc5ccc(F)cc5)CC4)cc3F)ccnc2cc1OCCCN1CCOCC1 [Foretinib] (partner 0.25 µM)
# Summary of the method: as §1
Cell Line,relative viability ([1]; first compound 0.5 µM),relative viability ([1]; first compound 1.581 µM),relative viability ([1]; first compound 5 µM),relative viability ([1]; first compound 15.81 µM),relative viability ([1]; first compound 50 µM),relative viability ([2]; first compound 0.08 µM),relative viability ([2]; first compound 0.253 µM),relative viability ([2]; first compound 0.8 µM),relative viability ([2]; first compound 2.53 µM),relative viability ([2]; first compound 8 µM),relative viability ([3]; first compound 0.5 µM),relative viability ([3]; first compound 1.581 µM),relative viability ([3]; first compound 5 µM),relative viability ([3]; first compound 15.81 µM),relative viability ([3]; first compound 50 µM),relative viability ([4]; first compound 0.08 µM),relative viability ([4]; first compound 0.253 µM),relative viability ([4]; first compound 0.8 µM),relative viability ([4]; first compound 2.53 µM),relative viability ([4]; first compound 8 µM)
NCI-H2009,0.837,0.329,0.58,0.962,0.398,0.286,0.301,0.271,0.273,0.238,0.298,0.276,0.166,0.265,0.189,1.11,1.28,1.26,1.22,0.957
COR-L 105,0.851,0.521,0.605,0.734,0.856,0.471,0.414,0.477,0.427,0.353,0.338,0.38,0.276,0.315,0.326,1.11,1.04,0.857,0.687,0.455
NCI-H1623,,,,,,,,,,,0.562,0.576,0.629,0.38,0.51,0.797,0.757,0.855,0.955,0.899
HCC-827,1.02,0.95,0.883,1.11,1.04,0.63,0.498,0.481,0.554,0.477,0.335,0.356,0.435,0.312,0.289,1.08,1,1.03,1.03,1.09
EMC-BAC-2,1.08,0.944,0.811,0.965,1.08,,,0.89,0.921,0.844,0.317,0.333,0.191,0.339,0.258,1.06,1.04,1.18,1.1,1.03
NCI-H1703,0.377,0.377,0.234,0.355,0.436,,,,,,,,,,,0.285,0.351,0.329,0.343,0.272
NCI-H2170,,,,,,0.888,1.04,0.861,0.928,0.859,0.542,0.744,0.643,0.475,0.536,1.09,0.974,0.983,1.04,1.03
NCI-H1755,0.937,0.813,0.649,0.886,0.905,0.674,0.787,0.714,0.783,0.785,0.367,0.406,0.246,0.364,0.361,0.917,0.935,0.859,0.915,0.97
ChaGo-K-1,1.21,,0.913,0.972,0.931,0.826,0.895,0.836,0.892,0.957,0.618,0.501,0.461,0.592,0.518,0.93,0.823,0.872,0.923,0.816
EKVX,0.981,0.961,1.28,1.01,0.963,0.331,0.305,0.202,0.345,0.332,0.535,,0.569,,0.43,0.798,0.753,0.735,0.869,0.788
HCC-78,0.442,0.509,0.565,0.422,0.491,,0.65,0.738,0.823,0.749,0.562,0.374,0.651,0.3,0.319,0.51,0.547,0.534,0.601,0.58
A-427,0.937,,0.839,0.781,0.789,0.76,0.753,0.747,0.751,0.545,0.609,,0.363,0.655,0.274,1.02,1.07,1,0.989,1.11
NCI-H3122,0.938,0.982,0.986,1.02,0.993,0.245,0.228,0.224,0.204,0.251,0.826,0.722,0.788,0.864,0.789,0.924,1.02,0.971,0.942,1.03
NCI-H1563,0.809,0.952,0.776,0.66,0.808,,,,,,0.51,0.695,0.461,0.42,0.417,0.901,1.07,0.903,0.901,0.864
SK-MES-1,,,,,,0.549,0.579,0.585,0.555,0.544,0.392,0.348,0.334,0.24,0.358,0.979,0.832,0.974,1,0.957
SW 1573,0.872,0.724,1.08,1.07,0.898,0.541,0.63,0.663,0.591,0.45,0.326,0.42,0.348,0.362,0.246,0.897,0.732,0.983,1.15,0.884
NCI-H2347,0.827,0.818,0.827,0.958,0.818,0.295,0.308,0.326,0.293,0.326,0.316,0.286,0.572,,0.261,0.89,0.934,0.501,1.1,1.07
LC-2-ad,0.932,0.907,0.749,1.01,0.94,0.858,0.928,0.928,0.894,0.902,0.689,0.429,0.535,0.44,0.351,0.735,0.905,1.06,0.935,0.878
HCC-15,1.01,0.527,0.943,1.01,0.906,0.421,0.346,0.357,0.414,0.348,0.624,,0.526,0.476,0.393,1.1,0.981,1.06,1.08,0.791
PC-3 [JPC-3],0.77,0.764,0.705,0.789,0.816,0.709,,0.596,0.728,0.626,0.978,0.891,0.742,0.924,0.859,0.927,1.02,1.03,1.14,0.966

Cell Line,relative viability ([1]; first compound 0.5 µM),relative viability ([1]; first compound 1.581 µM),relative viability ([1]; first compound 5 µM),relative viability ([1]; first compound 15.81 µM),relative viability ([1]; first compound 50 µM),relative viability ([2]; first compound 0.08 µM),relative viability ([2]; first compound 0.253 µM),relative viability ([2]; first compound 0.8 µM),relative viability ([2]; first compound 2.53 µM),relative viability ([2]; first compound 8 µM),relative viability ([3]; first compound 0.5 µM),relative viability ([3]; first compound 1.581 µM),relative viability ([3]; first compound 5 µM),relative viability ([3]; first compound 15.81 µM),relative viability ([3]; first compound 50 µM),relative viability ([4]; first compound 0.08 µM),relative viability ([4]; first compound 0.253 µM),relative viability ([4]; first compound 0.8 µM),relative viability ([4]; first compound 2.53 µM),relative viability ([4]; first compound 8 µM)
NCI-H1915,0.883,0.924,0.661,0.931,1.01,0.312,0.303,0.294,0.306,0.319,0.342,0.36,,0.316,0.352,0.92,1.12,1.1,1.22,1.16
HOP-62,0.688,0.532,0.73,0.74,0.823,0.451,0.354,0.325,0.387,0.389,0.625,0.639,0.269,0.567,0.525,1.06,1.16,1.01,1.11,1.08
LCLC-103H,1.05,0.96,1.02,0.899,1.07,0.619,0.663,0.721,0.666,0.653,0.406,0.428,0.256,0.281,0.45,0.749,0.81,0.749,0.966,0.657
Calu-6,0.884,0.912,1.08,1.13,0.898,,,,,,,,,,,0.792,0.996,0.891,0.792,0.48
NCI-H1793,,,,,,0.374,0.419,0.393,0.515,0.418,0.433,0.365,0.239,0.358,0.414,0.672,0.699,0.755,0.686,0.316
NCI-H1792,0.963,0.724,0.915,0.909,1.02,0.37,0.38,0.415,0.421,0.516,0.805,,0.817,0.529,0.809,,,,,
EBC-1,0.436,0.526,0.441,0.61,0.346,,,,,,,,,,,0.112,0.0981,0.119,0.111,0.117
NCI-H522,,,,,,0.749,0.687,0.747,0.64,0.74,0.83,0.803,0.624,0.671,0.664,,,,,
NCI-H1648,,,,,,,,0.219,0.563,0.568,,,,,,,,,,
NCI-H1944,,,,,,0.375,0.424,0.435,0.45,0.459,0.225,0.223,0.179,0.196,0.184,0.664,0.88,0.985,0.943,0.99
NCI-H2342,,,,,,0.715,0.741,0.989,0.89,0.89,0.314,0.299,0.33,0.365,0.313,0.928,1.03,1.16,1.01,1.07
NCI-H1299,1.06,0.94,0.876,0.98,0.985,,,,,,,,,,,1.06,1.1,1.07,1.12,0.679
SW 900,,,,,,0.696,,0.557,0.706,0.819,0.603,0.496,0.426,0.568,0.327,0.899,0.761,0.811,0.893,0.759
IA-LM,0.709,0.816,0.775,0.763,0.131,,,,,,,,,,,1.21,1.36,1.33,1.08,0.285
LK-2,,,,,,0.591,0.684,0.956,0.914,0.747,0.354,,0.267,0.229,0.241,0.934,1.21,1.7,1.46,1.3
HCC-44,0.842,0.86,0.916,0.892,0.934,1.07,1.02,0.996,1.04,1.15,,,,,,,,,,
NCI-H1395,,,,,,0.999,1.08,,1.07,1.09,0.402,0.428,0.382,0.355,0.375,0.989,0.962,0.949,1.07,1.02
A549,,,,,,,,,,,,,,,,1.08,0.952,0.743,0.177,0.063
NCI-H358,,,,,,0.162,0.123,0.139,0.127,0.12,0.201,0.132,0.139,0.152,0.158,0.608,0.637,0.554,0.504,0.212
ABC-1,0.329,0.246,0.258,0.328,0.327,,,,,,0.47,0.546,0.465,0.598,0.297,0.98,1.01,1.29,1.1,0.709
